Activity data for two molecules are collected here from ChEMBL document CHEMBL1154024, “Synthesis of radiolabeled cytarabine conjugates” (2009).

Test [1] relates to NCI-H441. Description: Cytotoxicity against human H441 cells after 72 hrs by trypan blue cell exclusion assay. In kind it is functional, cell-based.
A short description of test [2]: Cytotoxicity in human H441 cells at 2 uM after 72 hrs by trypan blue cell exclusion assay. In kind it is functional, NCI-H441.
For test [3], the system named is NCI-H441. Kind of test: Cytotoxicity against human H441 cells by serum lactate dehydrogenase assay. In kind it is functional, cell-based.
Test [4] has as its system NCI-H441. Description: Cytotoxicity against human H441 cells by glucosaminidase assay. The test is classed as functional, cell-based.

Active and inactive are the calls of the source. The rule behind the calls is not given here.

Take `NNc1ccc(C(=O)Nc2ccn([C@@H]3O[C@H](CO)[C@@H](O)[C@@H]3O)c(=O)n2)cn1`: the Activity result with NCI-H441 [1] is “Dose-dependent effect”; in test [2], 55%. In addition, the result with NCI-H441 [3] and with NCI-H441 [4] was Active.
`Nc1ccn([C@@H]2O[C@H](CO)[C@@H](O)[C@@H]2O)c(=O)n1` [CYTARABINE]: the figures for the Activity entry (in the test on NCI-H441 [1]; in test [2]) were “Dose-dependent effect” and 55%, respectively. Besides, the result with NCI-H441 [3] and with NCI-H441 [4] was Active.
